This is an account of results in patent publication US20230226214A1, “BIFUNCTIONAL BRIDGING COMPOSITIONS FOR VIRAL TRANSDUCTION” (Lycia Therapeutics, Inc., priority 2020, published 2023).

For data set [1], the system named is human Jurkat cells. Description: Uptake of IgG2a-Alexa488 mediated by anti-IgG2a conjugates (flow cytometry). The format is cell-based. The settings on record: 1 h and 24 h. The procedure: The anti-IgG2a conjugates were bound to IgG2a-Alexa488, as follows: equal molar ratios of anti-IgG2a and IgG2a-Alexa488 were added in tissue culture media for 30 minutes at room temperature. The resulting anti-IgG2a:IgG2a antibody-Alexa488 compositions were added to human Jurkat cells (100 k cells/50 ul per well, n=2), and Alexa488 fluorescence levels were measured (via Alexa488 measurement) at 1 hour and 24 hours by flow cytometry. Because Alexa488 accumulates in cells, this presents a way to measure total intracellular uptake by cells over time.
For orientation: In flow cytometry, cells or beads pass a laser one at a time.

Data set [2] deals with T1, recombinant human CI-M6PR protein (Homo sapiens, UniProt P11717).
T1 construct: purchased R&D 6418-GR-050
T1 sequence (P11717 41-1365 limits assumed): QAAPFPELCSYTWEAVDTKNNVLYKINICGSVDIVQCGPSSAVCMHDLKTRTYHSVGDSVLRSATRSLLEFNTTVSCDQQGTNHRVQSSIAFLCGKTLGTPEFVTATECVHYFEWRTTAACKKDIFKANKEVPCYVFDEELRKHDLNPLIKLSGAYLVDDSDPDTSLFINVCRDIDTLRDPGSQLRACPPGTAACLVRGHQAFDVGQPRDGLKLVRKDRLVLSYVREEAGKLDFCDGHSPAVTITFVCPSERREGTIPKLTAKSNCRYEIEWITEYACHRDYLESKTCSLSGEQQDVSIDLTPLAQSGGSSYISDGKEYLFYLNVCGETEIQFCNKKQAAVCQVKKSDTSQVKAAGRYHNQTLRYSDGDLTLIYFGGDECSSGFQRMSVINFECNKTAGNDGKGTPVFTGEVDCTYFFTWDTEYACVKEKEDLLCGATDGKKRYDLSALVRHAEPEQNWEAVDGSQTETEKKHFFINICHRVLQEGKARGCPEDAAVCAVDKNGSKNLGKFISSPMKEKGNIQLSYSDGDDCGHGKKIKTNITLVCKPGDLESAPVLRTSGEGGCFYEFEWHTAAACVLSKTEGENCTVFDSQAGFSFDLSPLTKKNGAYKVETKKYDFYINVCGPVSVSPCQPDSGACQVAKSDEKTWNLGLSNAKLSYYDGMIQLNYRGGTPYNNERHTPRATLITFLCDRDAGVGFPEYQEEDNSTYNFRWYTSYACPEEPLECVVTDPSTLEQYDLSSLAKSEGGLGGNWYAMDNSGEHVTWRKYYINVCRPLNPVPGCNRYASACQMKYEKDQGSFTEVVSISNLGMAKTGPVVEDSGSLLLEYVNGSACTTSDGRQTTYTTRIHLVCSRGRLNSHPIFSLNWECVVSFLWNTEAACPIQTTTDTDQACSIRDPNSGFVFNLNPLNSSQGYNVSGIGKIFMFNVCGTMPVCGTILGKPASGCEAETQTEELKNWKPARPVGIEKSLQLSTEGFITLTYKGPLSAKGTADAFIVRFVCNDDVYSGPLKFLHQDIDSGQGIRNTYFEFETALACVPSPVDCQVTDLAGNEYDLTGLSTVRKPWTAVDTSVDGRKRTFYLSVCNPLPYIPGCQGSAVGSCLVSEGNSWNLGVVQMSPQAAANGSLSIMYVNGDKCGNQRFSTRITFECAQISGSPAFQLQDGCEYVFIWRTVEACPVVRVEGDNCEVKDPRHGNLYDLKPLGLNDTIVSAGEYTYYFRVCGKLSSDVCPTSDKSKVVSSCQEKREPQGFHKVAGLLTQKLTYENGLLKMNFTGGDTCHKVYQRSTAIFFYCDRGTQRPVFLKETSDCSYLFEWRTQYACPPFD
The data set is described as follows: M6PR binding ELISA of matuzumab conjugates. The settings on record: antibody conjugates of the ligand-linkers. Here is the method: Binding affinity of matuzumab conjugated to ligand-linkers for M6PR was determined by ELISA using the following protocol: Nunc black solid bottom MaxiSorp plates were allowed to incubate overnight at 4° C. coated with 1 μg/mL of recombinant human CI-M6PR protein (R&D, 6418-GR-050) in 50 μL PBS. The next day, coating was decanted and plates were washed 3× with PBS. Wells were blocked with 350 μL of 3% BSA-PBS for 1 hour at room temperature. […] 50 μL of diluted conjugates were added to the plate and allowed to incubate at room temperature for 2 hours. After incubation, solutions in plate were decanted and washed with 350 μL of 0.05% PBS-Tween20 three times, drying the plate each wash on a clean paper towel. 50 μL of peroxidase AffiniPure Mouse Anti-Human IgG (Jackson Immuno, 209-035-088) diluted in 3% BSA-PBS to 0.2 μg/mL was added to the plate and allowed to incubate for 1 hour at room temperature in the dark. After incubation, solutions in plate were decanted and washed with 350 μL of 0.05% PBS-Tween20 3 times, drying the plate each wash on a clean paper towel. […] 50 μL of QuantaBlu solution was added to wells and allowed to incubate for 5-10 minutes at room temperature. After incubation, plates were read on a Perkin Elmer EnVision using photometric 340 and Umbelliferone 460 filter sets for excitation and emission, respectively. Data analysis and non-linear curve-fitting was performed using GraphPad Prism.

The conditions of data set [3]: mice, intravenous, 10 μg/mouse; serum rIgG1 at 0.5-24 hours; compared with Compound I-7 conjugate. The procedure: A pharmacokinetic analysis of the rIgG1 (anti-IgG2a) antibody conjugates described in the previous example was performed in mice. In particular, C57B6 mice were intravenously administered each rIgG1 antibody conjugate at 10 μg/mouse (5 mice per group). Blood was collected at 0.5, 1, 2, 6, and 24 hours and serum rIgG1 was analyzed using an ELISA kit (Abcam) according to the manufacturer's instructions. Samples were run across 3 different plates with unconjugated rIgG1 controls (UNLB-anti-IgG2a rIgG1) included on all 3 plates.

Data set [4] concerns human HepG2 cells. The data set is described as follows: Transduction efficiency of AAV8 particle conjugates in HepG2 cells (GFP). The settings on record: increasing MOI, 72 hrs, compared with unconjugated AAV8. Format: cell-based. Here is the method: Transduction efficiency of AAV8 particle conjugates was also measured in human HepG2 cells and compared to that of an unconjugated AAV-CMV-GFP control (“AAV8 GFP-UNLB”). HepG2 cells were transduced with increasing multiplicity of infection (MOI) of unconjugated AAV8, AAV8 conjugated to Compound I-7 (ITX-16590), and AAV conjugated to Compound I-124 (ITX-22701) or different molar rations of AAV8 conjugated to Compound I-124 (ITX-22701).
In performing the experiments described above, 2V6·11 cells (Elab Science) in DMEM (Gibco) with 10% fetal bovine serum (Gibco) were seeded onto 96-well plates (Nunc) at a concentration of 20 k cells/well 24 hours prior to infection. Jurkat cells (ATCC) in RPMI (Gibco) with 10% fetal bovine serum (Gibco) were seeded onto 96-well plates (Nunc) 1 h prior to transduction. HepG2 cells (ATCC) in EMEM (Gibco) with 10% fetal bovine serum (Gibco) were seeded onto 96-well plates (Nunc) 24 hours prior to infection. […]
After the incubation period, the medium was aspirated, the cells were washed with PBS and analyzed for GFP expression via flow cytometry on BioRad ZES Cell Analyzer (BioRad) or analyzed for luciferase levels using a luciferase assay kit (Promega) following manufacture's protocol and using a luminometer.

In the case of `O=C(CCOCCOCCOCCOCCOCCOCCOCCOCCn1cc(CCO[C@H]2O[C@H](CCP(=O)(O)O)[C@@H](O)[C@H](O)[C@@H]2O)nn1)Oc1c(F)c(F)c(F)c(F)c1F` [Compound I-9], the “intracellular uptake (Alexa488 fluorescence)” value (“intracellular uptake” for short) in data set [1] is recorded as “sufficiently robust uptake”.
As to `O=C(CCN1C(=O)C=CC1=O)NCCOCCOCCOCCn1cc(CCO[C@H]2O[C@H](CCP(=O)(O)O)[C@@H](O)[C@H](O)[C@@H]2O)nn1` [Compound I-10], the “binding affinity for M6PR” value in data set [2] is recorded as “weaker binding affinity to M6PR compared to Compound I-7”. In addition, the half-life in serum result in data set [3] is reported as “longer half-life”.
Regarding `O=C(CCOCCn1cc(CCO[C@H]2O[C@H](CCP(=O)(O)O)[C@@H](O)[C@H](O)[C@@H]2O)nn1)Oc1c(F)c(F)c(F)c(F)c1F` [Compound I-11], in data set [1], the “intracellular uptake” value is listed as “sufficiently robust uptake”. Also, the “binding affinity for M6PR” value in data set [2] is “weaker binding affinity to M6PR compared to Compound I-7”. In addition, the half-life in serum result in data set [3] is reported as “longer half-life”.
In the case of `O=C(CCOCCOCCOCCN(CCOCCOCCOCCn1cc(CCO[C@H]2O[C@H](CCP(=O)(O)O)[C@@H](O)[C@H](O)[C@@H]2O)nn1)CCOCCOCCOCCn1cc(CCO[C@H]2O[C@H](CCP(=O)(O)O)[C@@H](O)[C@H](O)[C@@H]2O)nn1)Oc1c(F)c(F)c(F)c(F)c1F` [Compound I-12], the “intracellular uptake” value in data set [1] was “sufficiently robust uptake”. For the same molecule, the “binding affinity for M6PR” value in data set [2] is reported as “weaker binding affinity to M6PR compared to Compound I-7”. Further, the half-life in serum entry in data set [3] is reported as “longer half-life”.
Consider `CC(=O)N[C@H]1[C@H](OCCCCC(=O)NCCCNC(=O)CCOCC(COCCC(=O)NCCCNC(=O)CCCCO[C@@H]2O[C@H](CO)[C@H](O)[C@H](O)[C@H]2NC(C)=O)(COCCC(=O)NCCCNC(=O)CCCCO[C@@H]2O[C@H](CO)[C@H](O)[C@H](O)[C@H]2NC(C)=O)NC(=O)CCCCCCCCCCC(=O)Oc2c(F)c(F)c(F)c(F)c2F)O[C@H](CO)[C@H](O)[C@@H]1O` [Compound I-124], for which, in data set [4], the “transduction efficiency (percentage of GFP positive cells, MFI)” value is “greater transduction efficiency than unconjugated AAV8”.

B1: Compound I-11d4: "matuzumab-Compound I-11 (d4)" conjugate tested for M6PR binding (conjugate)
heavy: QVQLVQSGAEVKKPGASVKVSCKASGYTFTSHWMHWVRQAPGQGLEWIGEFNPSNGRTNYNEKFKSKATMTVDTSTNTAYMELSSLRSEDTAVYYCASRDYDYAGRYFDYWGQGTLVTVSSASTKGPSVFPLAPSSKSTSGGTAALGCLVKDYFPEPVTVSWNSGALTSGVHTFPAVLQSSGLYSLSSVVTVPSSSLGTQTYICNVNHKPSNTKVDKKVEPKS
light: DIQMTQSPSSLSASVGDRVTITCSASSSVTYMYWYQQKPGKAPKLLIYDTSNLASGVPSRFSGSGSGTDYTFTISSLQPEDIATYYCQQWSSHIFTFGQGTKVEIKRTVAAPSVFIFPPSDEQLKSGTASVVCLLNNFYPREAKVQWKVDNALQSGNSQESVTEQDSKDSTYSLSSTLTLSKADYEKHKVYACEVTHQGLSSPVTKSFNRGE
modifications: left off: a dimerising Fc or GST
For the molecule B1, in data set [2], the “binding affinity for M6PR” value is given as “lowest”.
